Reference: paper PMC7906094 (Cancer chemotherapy and pharmacology, 2020)
Blank lines part the entries; values can stand above or below the compound they belong to.

What was measured:
[1] = tested on: CYP3A5; details: cited from earlier work
[2] = tested on: CYP3A4; details: cited from earlier work
[3] = tested on: CYP; assay: Triapine metabolism in human liver microsomes, pH 7.4; type: in vitro ADME; details: human, human liver microsomes fortified with NADPH, pH 7.4
[4] = tested on: human liver microsomes (CYP); assay: as above; type: in vitro ADME
[5] = tested on: human liver microsomes (FMO); assay: Triapine metabolism in human liver microsomes, pH 8.4; type: in vitro ADME
[6] = tested on: human liver microsomal glucuronyltransferases; assay: Triapine metabolism by glucuronosyltransferases in human liver microsomes; type: in vitro ADME; details: human liver microsomes + UDPGA, 120-minute incubation
[7] = tested on: aldehyde oxidase (AO) and xanthine oxidase (XO); assay: Triapine metabolism in human liver cytosol with high AO/XO activity; type: in vitro ADME; details: 90-minute incubation, human liver cytosol enriched in AO/XO, presence or absence of raloxifene and allopurinol
[8] = tested on: monoamine oxidases (MAO)-A/B; assay: Triapine metabolism in human liver mitochondria; type: in vitro ADME; details: presence or absence of MAO-A and B inhibitors
[9] = tested on: primary human hepatocytes; assay: Triapine metabolism in human hepatocytes with enzyme inhibitors; type: in vitro ADME; details: in the presence of non-isoform specific CYP inhibitor N-benzyl imidazole
[10] = target: CYP2C19 (Homo sapiens, UniProt P33261); type: in vitro ADME; details: triapine 6 μM, human liver microsomes
CYP2C19, sequence (P33261 whole entry): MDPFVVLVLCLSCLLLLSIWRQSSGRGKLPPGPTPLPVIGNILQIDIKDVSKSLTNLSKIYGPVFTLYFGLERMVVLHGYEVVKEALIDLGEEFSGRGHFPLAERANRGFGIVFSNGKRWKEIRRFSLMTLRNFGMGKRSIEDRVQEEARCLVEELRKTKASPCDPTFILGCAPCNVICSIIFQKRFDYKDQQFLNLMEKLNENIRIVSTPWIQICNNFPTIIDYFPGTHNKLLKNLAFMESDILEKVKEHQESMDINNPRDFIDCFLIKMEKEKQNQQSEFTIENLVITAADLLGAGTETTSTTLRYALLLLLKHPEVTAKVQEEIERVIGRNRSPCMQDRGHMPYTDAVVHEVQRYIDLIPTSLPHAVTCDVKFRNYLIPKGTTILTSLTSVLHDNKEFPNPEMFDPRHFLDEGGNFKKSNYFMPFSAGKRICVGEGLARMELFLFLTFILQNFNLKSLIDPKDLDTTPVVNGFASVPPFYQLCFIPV

[11] = cited from earlier work
[12] = human, primary human hepatocytes
[13] = tested on: CYP2C9; details: microsomes; cited from earlier work
[14] = tested on: CYP3A4; details: cited from earlier work; remark: listed apart in the source
[15] = tested on: primary human hepatocytes; details: human hepatocytes, tenofovir 0.5 μM, emtricitabine 7.2 μM; for impact of co-incubation on triapine half-life: triapine 6 μM
[16] = tested on: CYP3A4; details: cited from earlier work; remark: listed apart in the source

Structure (SMILES): CNC(=O)c1cc(Oc2ccc(NC(=O)Nc3ccc(Cl)c(C(F)(F)F)c3)cc2)ccn1 [Sorafenib]
effect on midazolam 1'-hydroxylation by CYP3A5 [1]: activated | effect on midazolam 1'-hydroxylation by CYP3A4 [2]: inhibited

half-life at 6 μM [3]: ~3 h | depletion of triapine ([4]; NADPH-fortified human liver microsomes pH 7.4 in the presence of CYP non-specific inhibitor N-benzyl imidazole (1 mM)): Minimal depletion | triapine remaining intact ([4]; control incubation without either NADPH or microsomes, after 2 h): > 95% | triapine disappeared ([5]; human liver microsomes, phosphate buffer pH 8.4, fortified with NADPH, within 2 h): 17% | depletion of triapine ([5]; pH 8.4, control incubation without NADPH): 9% | depletion of triapine ([5]; pH 8.4, in the presence of FMO inhibitor methimazole (200 μM)): 9% | triapine remaining [6]: 100.3% | metabolism of triapine [7]: did not undergo metabolism | triapine depletion [8]: no triapine depletion | triapine metabolism in hepatocytes [9]: inhibited | increase of metabolism of CYP2C19 probe S-mephenytoin [10]: 20% | half-life at 6 μM [12]: 8 h
Structure (SMILES): NC(=S)NN=Cc1ncccc1N [Triapine, 3-aminopyridine-2-carboxaldehyde thiosemicarbazone]
Cmax ([11]; after intravenous or oral dosing): ~5 µM | total body clearance ([11]; humans, intravenous administration): 57.5 ± 25 L/h | time to reach Cmax ([11]; humans, oral administration): 1.9 ± 1.4 h | urinary excretion ([11]; humans): minimal

Structure (SMILES): CC(C)=O [acetone]
stimulation of CYP2C9 mediated tolbutamide hydroxylation [13]: 2–3 fold

Structure (SMILES): CC#N [acetonitrile]
stimulation of CYP2C9 mediated tolbutamide hydroxylation [13]: 2–3 fold

Structure (SMILES): O=C(O)CC(O)(CC(=O)O)C(=O)O [citrate]
effect on CYP3A4 catalytic activity [14]: stimulated

impact of co-incubation on %triapine remaining after 48 hours [15]: not significantly different | impact of co-incubation on triapine AUC0–48h [15]: not significantly different | impact of co-incubation on triapine half-life [15]: not impacted
Structure (SMILES): Nc1nc(=O)n([C@@H]2CS[C@H](CO)O2)cc1F [emtricitabine]

Structure (SMILES): C=C[C@H]1C[N@@]2CC[C@H]1C[C@@H]2[C@@H](O)c1ccnc2ccc(OC)cc12 [quinidine]
increase of CYP3A4 Vmax for R-warfarin 10-hydroxylation [16]: 5 fold | increase of CYP3A4 Vmax for S-warfarin 4'-hydroxylation [16]: 2.5 fold | increase of CYP3A4 mediated 5-, 5'-, and 10-hydroxylation of diclofenac, piroxicam and R-warfarin [16]: 5–7 fold

Structure (SMILES): CCN(CC)CCNC(=O)c1c(C)[nH]c(/C=C2\C(=O)Nc3ccc(F)cc32)c1C [sunitinib]
effect on midazolam 1'-hydroxylation by CYP3A5 [1]: activated | effect on midazolam 1'-hydroxylation by CYP3A4 [2]: inhibited

impact of co-incubation on %triapine remaining after 48 hours [15]: not significantly different | impact of co-incubation on triapine AUC0–48h [15]: not significantly different | impact of co-incubation on triapine half-life [15]: not impacted
Structure (SMILES): C[C@H](Cn1cnc2c(N)ncnc21)OCP(=O)(O)O [tenofovir]
